Activity calls are given as the source filed them. The calls are words filed in the database; no cut-off is given here.
Columns and labels:
Histone deacetylase 1 = Histone deacetylase 1 (Homo sapiens, UniProt Q13547); test: Inhibition of human HDAC1 preincubated for 15 mins followed by substrate addition by fluorescence-based assay
[1] = molecular target: T1, Protein deacetylase HDAC6 (Homo sapiens, UniProt Q9UBN7); test: Inhibition of human HDAC6 preincubated for 15 mins followed by substrate addition by fluorescence-based assay
T1 sequence (Q9UBN7 whole entry): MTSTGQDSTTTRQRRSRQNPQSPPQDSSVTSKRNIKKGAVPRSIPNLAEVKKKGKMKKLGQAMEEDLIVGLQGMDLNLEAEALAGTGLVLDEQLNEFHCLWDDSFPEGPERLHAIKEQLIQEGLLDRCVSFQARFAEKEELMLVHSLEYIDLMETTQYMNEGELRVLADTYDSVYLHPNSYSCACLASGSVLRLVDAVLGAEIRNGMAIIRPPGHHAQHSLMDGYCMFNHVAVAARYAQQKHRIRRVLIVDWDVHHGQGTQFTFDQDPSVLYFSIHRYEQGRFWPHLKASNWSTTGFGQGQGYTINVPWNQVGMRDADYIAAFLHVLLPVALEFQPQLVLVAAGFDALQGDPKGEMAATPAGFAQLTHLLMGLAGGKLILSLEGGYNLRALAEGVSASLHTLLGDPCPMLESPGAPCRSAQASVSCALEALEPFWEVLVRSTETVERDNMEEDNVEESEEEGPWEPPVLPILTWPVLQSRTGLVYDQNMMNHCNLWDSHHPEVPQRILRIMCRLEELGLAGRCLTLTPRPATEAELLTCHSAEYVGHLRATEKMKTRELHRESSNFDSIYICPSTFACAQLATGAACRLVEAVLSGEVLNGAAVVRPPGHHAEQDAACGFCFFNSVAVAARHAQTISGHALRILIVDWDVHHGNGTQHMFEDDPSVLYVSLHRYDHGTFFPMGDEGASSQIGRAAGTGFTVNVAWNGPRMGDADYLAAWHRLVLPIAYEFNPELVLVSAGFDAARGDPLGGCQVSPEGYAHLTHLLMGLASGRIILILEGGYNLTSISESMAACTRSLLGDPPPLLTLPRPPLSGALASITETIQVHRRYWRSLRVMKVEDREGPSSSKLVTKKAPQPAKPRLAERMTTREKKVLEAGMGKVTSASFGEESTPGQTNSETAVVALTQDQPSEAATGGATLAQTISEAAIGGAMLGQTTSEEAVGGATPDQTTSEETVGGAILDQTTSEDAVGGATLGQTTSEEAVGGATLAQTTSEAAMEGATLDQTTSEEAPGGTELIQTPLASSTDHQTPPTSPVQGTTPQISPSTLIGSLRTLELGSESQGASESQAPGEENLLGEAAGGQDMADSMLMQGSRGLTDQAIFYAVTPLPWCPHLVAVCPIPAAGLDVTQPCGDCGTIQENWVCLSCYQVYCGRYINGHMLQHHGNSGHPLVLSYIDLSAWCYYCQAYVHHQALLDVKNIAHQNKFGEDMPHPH

Rattus norvegicus [2] = test: Neuroprotective activity in Sprague-Dawley rat middle cerebral artery occlusion model assessed as reduction in neurobehavioral defects at 25 mg/kg, ip after 24 hrs by TTC staining based assay; format: functional, organism-based
in vivo [3] = details: C57, mouse, brain/plasma, ip, 20 mg/kg
[4] = Drug concentration in plasma of C57 mouse at 20 mg/kg, ip measured after 4 hrs by LC/MS-MS analysis; format: ADME, organism-based
[5] = Drug concentration in plasma of C57 mouse at 20 mg/kg, ip measured after 1 hr by LC/MS-MS analysis; format: ADME, organism-based
[6] = Drug concentration in brain of C57 mouse at 20 mg/kg, ip measured after 1 hr by LC/MS-MS analysis; format: ADME, organism-based; details: read-out: Ct
in vivo [7] = details: C57, mouse, brain/plasma, ip, 20 mg/kg; remark: listed apart in the source
[8] = Drug concentration in brain of C57 mouse at 20 mg/kg, ip measured after 4 hrs by LC/MS-MS analysis; format: ADME, organism-based; details: read-out: Ct
[9] = Ratio of drug concentration in brain to plasma of Sprague-Dawley rat at 50 mg/kg, po measured after 60 to 180 mins by LC/MS-MS analysis; format: ADME, organism-based; details: time 60-180 min
Rattus norvegicus [10] = test: Neuroprotective activity in Sprague-Dawley rat middle cerebral artery occlusion model assessed as reduction in cerebral infarction at 25 mg/kg, ip after 24 hrs by TTC staining based assay (reference value: 21.22%); format: functional; set-up: scale not given: the % may be the effect or the level left
[11] = Ratio of drug concentration in brain to plasma of mouse at 5 to 50 mg/kg, ip after 2 hrs by HPLC/MS-MS analysis; format: ADME, organism-based; details: dose 5-50 mg/kg, read-out: BPR
Rattus norvegicus [12] = test: Neuroprotective activity in Sprague-Dawley rat middle cerebral artery occlusion model assessed as reduction in neurobehavioral defects at 5 mg/kg, ip after 24 hrs by TTC staining based assay; format: functional, organism-based
[13] = molecular target: T2, Protein deacetylase HDAC6 (Homo sapiens) (UniProt Q9UBN7); test: Inhibition of HDAC6 in human SH-SY5Y cells assessed as fold increase in ratio of acetylated histone H3 to histone H3 at 10 uM incubated for 24 hrs by Western blot analysis; format: cell-based
T2 sequence (whole entry): T1 sequence (Q9UBN7 whole entry)

[14] = molecular target: T2, Protein deacetylase HDAC6 (Homo sapiens); test: Inhibition of HDAC6 in human SH-SY5Y cells assessed as fold increase in ratio of acetylated alpha-tubulin to alpha-tubulin at 10 uM incubated for 24 hrs by Western blot analysis; format: cell-based
[15] = molecular target: T2, Protein deacetylase HDAC6 (Homo sapiens); test: Inhibition of HDAC6 in human SH-SY5Y cells assessed as increase in acetylated histone H3 levels at 0.1 to 10 uM incubated for 24 hrs by Western blot analysis; format: cell-based; details: dose 0.1-10 µM
[16] = molecular target: T2, Protein deacetylase HDAC6 (Homo sapiens); test: Inhibition of HDAC6 in human SH-SY5Y cells assessed as fold increase in ratio of acetylated alpha-tubulin to alpha-tubulin at 1 uM incubated for 24 hrs by Western blot analysis; format: cell-based
[17] = molecular target: T2, Protein deacetylase HDAC6 (Homo sapiens); test: Inhibition of HDAC6 in human SH-SY5Y cells assessed as increase in acetylated alpha-tubulin levels incubated for 24 hrs by Western blot analysis; format: cell-based; details: dose 0.1-10 µM

Histone deacetylase 1, sequence (Q13547 whole entry): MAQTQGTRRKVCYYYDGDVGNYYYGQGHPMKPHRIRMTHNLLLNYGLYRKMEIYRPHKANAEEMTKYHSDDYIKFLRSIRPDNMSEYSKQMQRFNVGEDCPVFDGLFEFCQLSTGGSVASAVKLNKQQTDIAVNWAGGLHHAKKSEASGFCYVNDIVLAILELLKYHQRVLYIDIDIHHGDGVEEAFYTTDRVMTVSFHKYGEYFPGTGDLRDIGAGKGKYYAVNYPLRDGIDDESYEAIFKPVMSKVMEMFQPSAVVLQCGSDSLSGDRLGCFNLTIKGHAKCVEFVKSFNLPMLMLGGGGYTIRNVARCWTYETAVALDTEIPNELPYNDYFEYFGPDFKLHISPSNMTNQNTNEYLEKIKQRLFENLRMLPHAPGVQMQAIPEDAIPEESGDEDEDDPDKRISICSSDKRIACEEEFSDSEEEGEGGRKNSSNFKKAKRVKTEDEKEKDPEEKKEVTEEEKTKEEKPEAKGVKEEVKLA

O=C(NO)c1ccc(CN2CCCCc3ccc(C4CC4)cc32)cc1
IC50 (Histone deacetylase 1): 509 nM

O=C(NO)c1ccc(CN2CCCCc3ccccc32)cc1
IC50 (Histone deacetylase 1): 392 nM | IC50 [1]: 6.4 nM

O=C(NO)c1ccc(CN2CCCCc3cc(Cl)ccc32)cc1
IC50 (Histone deacetylase 1): 819 nM | IC50 [1]: 37 nM

COc1ccc2c(c1)N(Cc1ccc(C(=O)NO)cc1)CCCC2
Activity (Rattus norvegicus [2]): Active | Kp at 1 h (in vivo [3]): 1.85 | concentration at 4 h [4]: 8.18 ng/mL | concentration at 1 h [5]: 526 ng/mL | concentration at 1 h [6]: 957 ng/mL | Kp at 4 h (in vivo [7]): 2.29 | concentration at 4 h [8]: 18.7 ng/mL

O=C(NO)c1ccc(CN2CCCCc3ccc(-c4ccccc4)cc32)cc1
IC50 (Histone deacetylase 1): 706 nM

COc1ccc(Br)c2c1CCN(Cc1ccc(C(=O)NO)cc1)CC2
IC50 (Histone deacetylase 1): 385 nM | IC50 [1]: 111 nM

O=C(NO)c1ccc(CN2CCC[S+]([O-])c3ccccc32)cc1 (stereo not given)
IC50 (Histone deacetylase 1): 166 nM | IC50 [1]: 13 nM

O=C(NO)c1ccc(CNc2cccc3cccnc23)cc1
Kp [9]: 1.01

COc1ccc(C2CC2)c2c1CCN(Cc1ccc(C(=O)NO)cc1)CC2
IC50 (Histone deacetylase 1): 502 nM

O=C(NO)c1ccc(CN2CCCOc3ccccc32)cc1
Kp at 1 h (in vivo [3]): 1.98 | concentration at 4 h [4]: 4.29 ng/mL | concentration at 1 h [5]: 59.4 ng/mL | concentration at 1 h [6]: 111 ng/mL | Kp at 4 h (in vivo [7]): 2.88 | concentration at 4 h [8]: 12.2 ng/mL

O=C(NO)c1ccc(CN2CCCCc3ccc(F)cc32)cc1
IC50 (Histone deacetylase 1): 761 nM | IC50 [1]: 19 nM

Cc1ccc2c(c1)N(Cc1ccc(C(=O)NO)cc1)CCCC2
IC50 (Histone deacetylase 1): 377 nM | IC50 [1]: 12 nM

COc1cc2c(cc1OC)N(Cc1ccc(C(=O)NO)cc1)CCCC2
IC50 (Histone deacetylase 1): 295 nM | IC50 [1]: 14 nM

O=C(NO)c1ccc(CN2CCCc3cc(Cl)ccc32)cc1
concentration at 4 h [4]: 4.13 ng/mL | concentration at 1 h [5]: 256 ng/mL | concentration at 1 h [6]: 468 ng/mL | concentration at 4 h [8]: 13.1 ng/mL

CN1CCc2c(c3ccccc3n2Cc2ccc(C(=O)NO)cc2)C1 [TUBASTATIN A]
Activity (Rattus norvegicus [2]): Active | Activity (Rattus norvegicus [10]): 13.02% | Kp at 2 h [11]: 0.18

CCCCC1OC(=O)c2ccccc21 (stereo not given)
Activity (Rattus norvegicus [12]): Active

O=C(NO)c1ccc(CN2CCc3ccccc3CC2)cc1
IC50 (Histone deacetylase 1): 804 nM | IC50 [1]: 255 nM

COc1cccc2c1CCN(Cc1ccc(C(=O)NO)cc1)CC2
IC50 (Histone deacetylase 1): 798 nM | IC50 [1]: 318 nM

O=C(NO)c1ccc(CN2CCCSc3ccccc32)cc1
FC [13]: 1.1 | Activity (Rattus norvegicus [2]): Active | FC [14]: 1.4 | Kp at 1 h (in vivo [3]): 2.3 | concentration at 4 h [4]: 7.03 ng/mL | inhibition [15]: Active | concentration at 1 h [5]: 96.1 ng/mL | concentration at 1 h [6]: 220 ng/mL | Kp at 4 h (in vivo [7]): 2.35 | FC [16]: 1.3 | concentration at 4 h [8]: 16.6 ng/mL | IC50 [1]: 1.8 nM | Activity (Rattus norvegicus [10]): 11.47% | inhibition [17]: Dose-Dependent Effect

COc1ccc(-c2ccccc2)c2c1CCN(Cc1ccc(C(=O)NO)cc1)CC2
IC50 (Histone deacetylase 1): 826 nM | IC50 [1]: 497 nM

O=C(NO)c1cnc(NC2(c3ccccc3)CC2)nc1
Kp at 2 h [11]: 1.22

COc1ccc2c(c1)CCN(Cc1ccc(C(=O)NO)cc1)CC2
IC50 (Histone deacetylase 1): 431 nM | IC50 [1]: 29 nM

O=C(NO)c1cnc(NC2(c3cccc(F)c3)CCCCC2)nc1
Kp at 2 h [11]: 1.26

O=C(NO)c1ccc(CN2CCCc3ccccc3C2)cc1
IC50 (Histone deacetylase 1): 1000 nM | IC50 [1]: 100 nM
